Measured values as given in ChEMBL document CHEMBL1158421, “Inhibitory effect of a dimerization-arm-mimetic peptide on EGF receptor activation” (Bioorg Med Chem Lett, 2009).
The source made the active and inactive calls. No cut-off for these calls is given here. Where a SMILES comes first, the peptide text is derived from it. Bridges are numbered along the chain shown (N, C = ends).

How the values were obtained:
Type in all cases: cell-based
Settings in all cases: A-431
[1] = molecular target: Epidermal growth factor receptor (Homo sapiens) (UniProt P00533); experiment: Reduction in EGF-induced dimerization of human EGFR in A431 cells preincubated for 30 mins before EGF challenge by SDS-PAGE
[2] = molecular target: Epidermal growth factor receptor (Homo sapiens) (UniProt P00533); experiment: Inhibition of EGF-stimulated human EGFR in intact A431 cells assessed as suppression of residual autophosphorylation at 0.1 uM preincubated for 3 hrs before EGF challenge by SDS-PAGE relative to control
[3] = molecular target: Epidermal growth factor receptor (Homo sapiens) (UniProt P00533); experiment: Inhibition of EGF-stimulated human EGFR in intact A431 cells assessed as suppression of residual autophosphorylation at 10 uM preincubated for 3 hrs before EGF challenge by SDS-PAGE relative to control
[4] = molecular target: Epidermal growth factor receptor (Homo sapiens) (UniProt P00533); experiment: Reduction in EGF-induced dimerization of human EGFR in A431 cells at 1 uM preincubated for 30 mins before EGF challenge by SDS-PAGE relative to control; design: scale not given: the % may be the effect or the level left
[5] = molecular target: Epidermal growth factor receptor (Homo sapiens) (UniProt P00533); experiment: Inhibition of EGF-stimulated human EGFR in intact A431 cells assessed as suppression of residual autophosphorylation at 1 uM preincubated for 3 hrs before EGF challenge by SDS-PAGE relative to control
[6] = molecular target: Epidermal growth factor receptor (Homo sapiens) (UniProt P00533); experiment: Inhibition of EGF-induced dimerization of human EGFR in A431 cells at >1 uM preincubated for 30 mins before EGF challenge by SDS-PAGE
[7] = molecular target: Epidermal growth factor receptor (Homo sapiens) (UniProt P00533); experiment: Reduction in EGF-induced dimerization of human EGFR in A431 cells at 0.01 to 1 uM preincubated for 30 mins before EGF challenge by SDS-PAGE

Sequence of Epidermal growth factor receptor (Homo sapiens) (P00533 whole entry): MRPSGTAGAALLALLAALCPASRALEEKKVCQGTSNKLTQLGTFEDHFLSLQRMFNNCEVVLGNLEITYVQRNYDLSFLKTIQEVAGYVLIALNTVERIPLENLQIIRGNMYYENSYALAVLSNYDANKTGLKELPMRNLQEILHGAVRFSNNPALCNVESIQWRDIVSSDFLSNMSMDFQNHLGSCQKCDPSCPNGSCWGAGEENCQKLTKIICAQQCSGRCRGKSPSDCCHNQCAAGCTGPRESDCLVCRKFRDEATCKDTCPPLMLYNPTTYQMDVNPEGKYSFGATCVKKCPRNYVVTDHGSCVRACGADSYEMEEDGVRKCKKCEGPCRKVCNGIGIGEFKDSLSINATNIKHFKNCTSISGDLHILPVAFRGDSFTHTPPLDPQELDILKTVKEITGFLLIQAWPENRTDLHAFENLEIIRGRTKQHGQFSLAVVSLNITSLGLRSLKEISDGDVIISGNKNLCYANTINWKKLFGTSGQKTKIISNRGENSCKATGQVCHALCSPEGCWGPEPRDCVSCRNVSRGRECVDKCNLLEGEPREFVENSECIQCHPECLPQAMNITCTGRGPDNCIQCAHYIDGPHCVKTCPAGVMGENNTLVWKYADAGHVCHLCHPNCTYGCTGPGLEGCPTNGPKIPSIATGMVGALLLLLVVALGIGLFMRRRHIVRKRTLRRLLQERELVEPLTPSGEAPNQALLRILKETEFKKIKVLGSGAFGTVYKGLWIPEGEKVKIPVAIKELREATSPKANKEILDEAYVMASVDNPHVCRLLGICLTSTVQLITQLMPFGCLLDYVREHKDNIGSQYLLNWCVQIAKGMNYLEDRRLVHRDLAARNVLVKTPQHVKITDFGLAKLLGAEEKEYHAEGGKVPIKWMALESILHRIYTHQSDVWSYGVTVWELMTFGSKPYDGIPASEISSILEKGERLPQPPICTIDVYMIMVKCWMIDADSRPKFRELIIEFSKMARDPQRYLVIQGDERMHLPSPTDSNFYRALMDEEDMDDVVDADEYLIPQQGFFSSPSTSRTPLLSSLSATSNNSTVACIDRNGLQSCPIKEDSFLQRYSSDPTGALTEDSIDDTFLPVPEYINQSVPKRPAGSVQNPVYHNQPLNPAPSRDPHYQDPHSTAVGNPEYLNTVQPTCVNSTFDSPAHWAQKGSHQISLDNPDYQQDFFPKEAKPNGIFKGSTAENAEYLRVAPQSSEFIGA

Activity [1]	Activity [2]	Activity [3]	Activity [4]	Activity [5]	Activity [6]	Activity [7]	SMILES
Dose-dependent effect	61%	30%	< 80%	51%	inactive		CSCC[C@@H]1NC(=O)[C@H](CCC(N)=O)NC(=O)[C@H](Cc2ccc(O)cc2)NC(=O)[C@H]([C@@H](C)O)NC(=O)[C@H]([C@@H](C)O)NC(=O)[C@@H]2CCCN2C(=O)[C@H](CC(N)=O)NC(=O)[C@H](Cc2ccc(O)cc2)NC(=O)[C@@H](N)CSSC[C@@H](C(=O)O)NC1=O (H-CYNPTTYQMC-OH; disulfide 1-10)
						inactive	CSCC[C@H](NC(=O)[C@H](CCC(N)=O)NC(=O)[C@H](Cc1ccc(O)cc1)NC(=O)[C@@H](NC(=O)[C@@H](NC(=O)[C@@H]1CCCN1C(=O)[C@H](CC(N)=O)NC(=O)[C@H](Cc1ccc(O)cc1)NC(=O)[C@@H](N)CS)[C@@H](C)O)[C@@H](C)O)C(=O)N[C@@H](CS)C(=O)O (H-CYNPTTYQMC-OH)
